Assay results taken from patent US6525001B1, “Substituted pyrimidine and pyridine herbicides” (Mid-American Commercialization Corporation, priority 1997, dated 2003).

What was measured:
Experiment in all cases: Test B pre-/postemergence
Assay type in all cases: in vivo
Set-up in all cases: key: 0 is no effect; 10 is complete control
[1] = test system: cocklebur (Xanthium strumarium)
How it was run: (§1)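 Seeds were planted and sprayed preemergence, while plants at 2 to 18 cm (1- to 4-leaf stage) were sprayed postemergence at the same time, with test chemical in a non-phytotoxic solvent mixture containing surfactant. After twelve to sixteen days in a greenhouse, injury was rated visually against untreated controls on a 0–10 scale.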

[2] = test system: momingglory (Ipomoea hederacea)
How it was run: as §1

[3] = test system: pigweed (Amaranthus retroflexus)
How it was run: as §1

[4] = test system: blackgrass (Alopecurus myosuroides)
How it was run: as §1

[5] = test system: broadleaf signalgrass (Brachiaria decumbens)
How it was run: as §1

[6] = Preemergence, Rate 62 g/ha, scale of 0 to 10

Q: `Cc1cnc(-n2ccc(C(F)(F)C(F)(F)F)n2)nc1C(=O)c1cccc(OC(F)(F)F)c1` [Compound 62] was tested. Which “Plant response rating, Cocklebur” value [1, 6] did it give?
A: Its value is 0.

Q: What about the “Cocklebur plant response rating” value ([1]; Rate 62 g/ha, Postemergence) of the same molecule?
A: Its value is 2.

Q: What about the “Cocklebur plant response rating” value ([1]; Rate 125 g/ha, Postemergence) of the same molecule?
A: The value was 5.

Q: And the “Plant response rating, Cocklebur” value ([1]; Rate 125 g/ha, Preemergence)?
A: The value was 0.

Q: And the “Plant response rating, Cocklebur” value ([1]; Rate 250 g/ha, Postemergence)?
A: The value was 7.

Q: What about the “Plant response rating, Cocklebur” value ([1]; Rate 500 g/ha, Postemergence) of the same molecule?
A: The value was 7.

Q: What about the “Plant response rating, Cocklebur” value ([1]; Rate 500 g/ha, Preemergence) of the same molecule?
A: Its value is 0.

Q: And the “Plant response rating, Morningglory” value [2, 6]?
A: The value was 1.

Q: And the “Morningglory plant response rating” value ([2]; Rate 62 g/ha, Postemergence)?
A: Its value is 3.

Q: What about the “Morningglory plant response rating” value ([2]; Rate 125 g/ha, Postemergence) of the same molecule?
A: The value was 4.

Q: What about the “Plant response rating, Morningglory” value ([2]; Rate 125 g/ha, Preemergence) of the same molecule?
A: Its value is 2.

Q: What about the “Plant response rating, Morningglory” value ([2]; Rate 250 g/ha, Postemergence) of the same molecule?
A: The value was 9.

Q: What about the “Plant response rating, Morningglory” value ([2]; Rate 250 g/ha, Preemergence) of the same molecule?
A: Its value is 4.

Q: What about the “Plant response rating, Morningglory” value ([2]; Rate 500 g/ha, Postemergence) of the same molecule?
A: Its value is 10.

Q: And the “Plant response rating, Morningglory” value ([2]; Rate 500 g/ha, Preemergence)?
A: Its value is 7.

Q: And the “Plant response rating, Redroot pigweed” value [3, 6]?
A: Its value is 8.

Q: And the “Redroot pigweed plant response rating” value ([3]; Rate 62 g/ha, Postemergence)?
A: Its value is 8.

Q: And the “Redroot pigweed plant response rating” value ([3]; Rate 125 g/ha, Postemergence)?
A: The value was 9.

Q: And the “Plant response rating, Redroot pigweed” value ([3]; Rate 125 g/ha, Preemergence)?
A: The value was 9.

Q: And the “Plant response rating, Redroot pigweed” value ([3]; Rate 250 g/ha, Postemergence)?
A: The value was 9.

Q: And the “Plant response rating, Redroot pigweed” value ([3]; Rate 250 g/ha, Preemergence)?
A: The value was 10.

Q: And the “Plant response rating, Redroot pigweed” value ([3]; Rate 500 g/ha, Postemergence)?
A: The value was 10.

Q: What about the “Plant response rating, Redroot pigweed” value ([3]; Rate 500 g/ha, Preemergence) of the same molecule?
A: Its value is 10.

Q: What about the “Plant response rating, Blackgrass” value [4, 6] of the same molecule?
A: Its value is 1.

Q: What about the “Blackgrass plant response rating” value ([4]; Rate 62 g/ha, Postemergence) of the same molecule?
A: Its value is 1.

Q: And the “Blackgrass plant response rating” value ([4]; Rate 125 g/ha, Postemergence)?
A: The value was 1.

Q: And the “Plant response rating, Blackgrass” value ([4]; Rate 125 g/ha, Preemergence)?
A: Its value is 1.

Q: What about the “Plant response rating, Blackgrass” value ([4]; Rate 250 g/ha, Postemergence) of the same molecule?
A: Its value is 2.

Q: And the “Plant response rating, Blackgrass” value ([4]; Rate 250 g/ha, Preemergence)?
A: The value was 1.

Q: And the “Plant response rating, Blackgrass” value ([4]; Rate 500 g/ha, Postemergence)?
A: Its value is 4.

Q: And the “Plant response rating, Blackgrass” value ([4]; Rate 500 g/ha, Preemergence)?
A: The value was 5.

Q: And the “B. signalgrass plant response rating” value ([5]; Rate 62 g/ha, Postemergence)?
A: The value was 2.

Q: What about the “B. signalgrass plant response rating” value ([5]; Rate 62 g/ha, Preemergence) of the same molecule?
A: Its value is 4.

Q: What about the “B. signalgrass plant response rating” value ([5]; Rate 125 g/ha, Postemergence) of the same molecule?
A: Its value is 2.

Q: What about the “Plant response rating, B. signalgrass” value ([5]; Rate 125 g/ha, Preemergence) of the same molecule?
A: Its value is 4.

Q: And the “Plant response rating, B. signalgrass” value ([5]; Rate 250 g/ha, Postemergence)?
A: The value was 2.

Q: And the “Plant response rating, B. signalgrass” value ([5]; Rate 250 g/ha, Preemergence)?
A: Its value is 8.

Q: What about the “Plant response rating, B. signalgrass” value ([5]; Rate 500 g/ha, Postemergence) of the same molecule?
A: The value was 3.

Q: What about the “Plant response rating, B. signalgrass” value ([5]; Rate 500 g/ha, Preemergence) of the same molecule?
A: Its value is 9.

Q: With `Cc1cnc(-c2ccc(Cl)cc2)nc1Cn1ccc(C(F)(F)F)n1` [Compound 6] as the molecule, how does the “Plant response rating, Cocklebur” value ([1]; Rate 62 g/ha, Postemergence) read?
A: Its value is 5.

Q: What about the “Cocklebur plant response rating” value ([1]; Rate 62 g/ha, Preemergence) of the same molecule?
A: Its value is 0.

Q: What about the “Plant response rating, Cocklebur” value ([1]; Rate 125 g/ha, Postemergence) of the same molecule?
A: The value was 6.

Q: What about the “Cocklebur plant response rating” value ([1]; Rate 125 g/ha, Preemergence) of the same molecule?
A: The value was 0.

Q: And the “Plant response rating, Cocklebur” value ([1]; Rate 250 g/ha, Postemergence)?
A: Its value is 7.

Q: What about the “Plant response rating, Cocklebur” value ([1]; Rate 250 g/ha, Preemergence) of the same molecule?
A: Its value is 0.

Q: What about the “Plant response rating, Cocklebur” value ([1]; Rate 500 g/ha, Postemergence) of the same molecule?
A: The value was 7.

Q: What about the “Plant response rating, Cocklebur” value ([1]; Rate 500 g/ha, Preemergence) of the same molecule?
A: The value was 0.

Q: What about the “Plant response rating, Morningglory” value ([2]; Rate 62 g/ha, Postemergence) of the same molecule?
A: The value was 3.

Q: What about the “Morningglory plant response rating” value ([2]; Rate 62 g/ha, Preemergence) of the same molecule?
A: Its value is 1.

Q: And the “Plant response rating, Morningglory” value ([2]; Rate 125 g/ha, Postemergence)?
A: Its value is 8.

Q: And the “Morningglory plant response rating” value ([2]; Rate 125 g/ha, Preemergence)?
A: Its value is 1.

Q: And the “Plant response rating, Morningglory” value ([2]; Rate 250 g/ha, Postemergence)?
A: Its value is 8.

Q: What about the “Plant response rating, Morningglory” value ([2]; Rate 250 g/ha, Preemergence) of the same molecule?
A: The value was 2.

Q: And the “Plant response rating, Morningglory” value ([2]; Rate 500 g/ha, Postemergence)?
A: Its value is 8.

Q: And the “Plant response rating, Morningglory” value ([2]; Rate 500 g/ha, Preemergence)?
A: Its value is 2.

Q: What about the “Plant response rating, Redroot pigweed” value ([3]; Rate 62 g/ha, Postemergence) of the same molecule?
A: The value was 5.

Q: And the “Redroot pigweed plant response rating” value ([3]; Rate 62 g/ha, Preemergence)?
A: The value was 0.

Q: What about the “Plant response rating, Redroot pigweed” value ([3]; Rate 125 g/ha, Postemergence) of the same molecule?
A: Its value is 7.

Q: And the “Redroot pigweed plant response rating” value ([3]; Rate 125 g/ha, Preemergence)?
A: The value was 3.

Q: And the “Plant response rating, Redroot pigweed” value ([3]; Rate 250 g/ha, Postemergence)?
A: The value was 9.

Q: And the “Plant response rating, Redroot pigweed” value ([3]; Rate 250 g/ha, Preemergence)?
A: Its value is 6.

Q: What about the “Plant response rating, Redroot pigweed” value ([3]; Rate 500 g/ha, Postemergence) of the same molecule?
A: The value was 9.

Q: What about the “Plant response rating, Redroot pigweed” value ([3]; Rate 500 g/ha, Preemergence) of the same molecule?
A: The value was 6.

Q: And the “Plant response rating, Blackgrass” value ([4]; Rate 62 g/ha, Postemergence)?
A: Its value is 0.

Q: What about the “Blackgrass plant response rating” value ([4]; Rate 62 g/ha, Preemergence) of the same molecule?
A: The value was 0.

Q: What about the “Plant response rating, Blackgrass” value ([4]; Rate 125 g/ha, Postemergence) of the same molecule?
A: Its value is 2.

Q: And the “Blackgrass plant response rating” value ([4]; Rate 125 g/ha, Preemergence)?
A: Its value is 0.

Q: And the “Plant response rating, Blackgrass” value ([4]; Rate 250 g/ha, Postemergence)?
A: The value was 2.

Q: And the “Plant response rating, Blackgrass” value ([4]; Rate 250 g/ha, Preemergence)?
A: Its value is 0.

Q: And the “Plant response rating, Blackgrass” value ([4]; Rate 500 g/ha, Postemergence)?
A: Its value is 2.

Q: What about the “Plant response rating, Blackgrass” value ([4]; Rate 500 g/ha, Preemergence) of the same molecule?
A: Its value is 4.

Q: And the “B. signalgrass plant response rating” value ([5]; Rate 62 g/ha, Preemergence)?
A: The value was 1.

Q: What about the “B. signalgrass plant response rating” value ([5]; Rate 125 g/ha, Preemergence) of the same molecule?
A: Its value is 4.

Q: What about the “Plant response rating, B. signalgrass” value ([5]; Rate 250 g/ha, Preemergence) of the same molecule?
A: The value was 9.

Q: What about the “Plant response rating, B. signalgrass” value ([5]; Rate 500 g/ha, Preemergence) of the same molecule?
A: Its value is 9.

Q: What does the source list for `Cc1cnc(-n2cnc(C(F)(F)F)n2)nc1Cn1ccc(C(F)(F)F)n1` [Compound 51]?
A: Plant response rating, Cocklebur ([1]; Rate 62 g/ha, Postemergence): 6; Cocklebur plant response rating ([1]; Rate 62 g/ha, Preemergence): 3; Cocklebur plant response rating ([1]; Rate 125 g/ha, Postemergence): 9; Plant response rating, Cocklebur ([1]; Rate 125 g/ha, Preemergence): 10; Plant response rating, Cocklebur ([1]; Rate 250 g/ha, Postemergence): 9; Plant response rating, Cocklebur ([1]; Rate 250 g/ha, Preemergence): 10; Plant response rating, Morningglory ([2]; Rate 62 g/ha, Postemergence): 10; Morningglory plant response rating ([2]; Rate 62 g/ha, Preemergence): 10; Morningglory plant response rating ([2]; Rate 125 g/ha, Postemergence): 10; Plant response rating, Morningglory ([2]; Rate 125 g/ha, Preemergence): 10; Plant response rating, Morningglory ([2]; Rate 250 g/ha, Postemergence): 10; Plant response rating, Morningglory ([2]; Rate 250 g/ha, Preemergence): 10; Plant response rating, Redroot pigweed ([3]; Rate 62 g/ha, Postemergence): 10; Redroot pigweed plant response rating ([3]; Rate 62 g/ha, Preemergence): 10; Redroot pigweed plant response rating ([3]; Rate 125 g/ha, Postemergence): 10; Plant response rating, Redroot pigweed ([3]; Rate 125 g/ha, Preemergence): 10; Plant response rating, Redroot pigweed ([3]; Rate 250 g/ha, Postemergence): 10; Plant response rating, Redroot pigweed ([3]; Rate 250 g/ha, Preemergence): 10; Plant response rating, Blackgrass ([4]; Rate 62 g/ha, Postemergence): 7; Blackgrass plant response rating ([4]; Rate 62 g/ha, Preemergence): 7; Blackgrass plant response rating ([4]; Rate 125 g/ha, Postemergence): 9; Plant response rating, Blackgrass ([4]; Rate 125 g/ha, Preemergence): 9; Plant response rating, Blackgrass ([4]; Rate 250 g/ha, Postemergence): 9; Plant response rating, Blackgrass ([4]; Rate 250 g/ha, Preemergence): 10; Plant response rating, B. signalgrass ([5]; Rate 62 g/ha, Postemergence): 2; B. signalgrass plant response rating ([5]; Rate 62 g/ha, Preemergence): 4; B. signalgrass plant response rating ([5]; Rate 125 g/ha, Postemergence): 8; Plant response rating, B. signalgrass ([5]; Rate 125 g/ha, Preemergence): 9; Plant response rating, B. signalgrass ([5]; Rate 250 g/ha, Postemergence): 9; Plant response rating, B. signalgrass ([5]; Rate 250 g/ha, Preemergence): 9
